Reference: patent US20150105252A1, “SUBSTITUTED PYRAZOLES AS HERBICIDES” (E I DU PONT DE NEMOURS AND COMPANY, priority 2013, published 2015)

Legend:
foxtail, giant [1] = test: Test C preemergence; type: in vivo, Setaria faberii; details: for Plant response rating (scale of 0 to 100), Foxtail, Giant: Preemergence, 250 g ai/ha; for Foxtail, Giant plant response rating / Plant response rating, Foxtail, Giant: preemergence; for Plant response rating, Foxtail, Giant: 62 g ai/ha, scale 0 to 100, 0 = no effect, 100 = complete control
From the text: (§1) Seeds of plant species selected from blackgrass (Alopecurus myosuroides), ryegrass, Italian (Italian ryegrass, Lolium multiflorum), wheat (winter wheat, Triticum aestivum), galium (catchweed bedstraw, Galium aparine), corn (Zea mays), crabgrass, large (large crabgrass, Digitaria sanguinalis), foxtail, giant (giant foxtail, Setaria faberii), johnsongrass (Sorghum halepense), lambsquarters (Chenopodium album), morningglory (Ipomoea coccinea), nutsedge, yellow (yellow nutsedge, Cyperus esculentus), pigweed (redroot pigweed, Amaranthus retroflexus), ragweed (common ragweed, Ambrosia elation), soybean (Glycine max), barnyardgrass (Echinochloa crus-galli), oilseed rape (Brassica napus), waterhemp (common waterhemp, Amaranthus rudis), oat, wild (wild oat, Avena fatua), kochia (Kochia scoparia), Surinam grass (Brachiaria decumbens), foxtail, green (green foxtail, Setaria viridis), goosegrass (Eleusine indica), bromegrass, downy (downy bromegrass, Bromus tectorum), nightshade (eastern black nightshade, Solanum ptycanthum), cocklebur (common cocklebur, Xanthium strumarium), cupgrass, woolly (woolly cupgrass, Eriochloa villosa), bermudagrass (Cynodon dactylon), sunflower, (common oilseed sunflower, Helianthus annuus), Russian thistle (Salsola kali), and velvetleaf (Abutilon theophrasti) were planted into a blend of loam soil and sand and treated preemergence with test chemicals formulated in a non-phytotoxic solvent mixture which included a surfactant.
(§2) At the same time, plants selected from these crop and weed species and also chickweed (common chickweed, Stellaria media), canarygrass (littleseed canarygrass, Phalaris minor), and deadnettle (henbit deadnettle, Lamium amplexicaule), were planted in pots containing Redi-Earth® planting medium (Scotts Company, 14111 Scottslawn Road, Marysville, Ohio 43041) comprising spaghnum peat moss, vermiculite, wetting agent and starter nutrients and treated with postemergence applications of test chemicals formulated in the same manner. Plants ranged in height from 2 to 18 cm (1- to 4-leaf stage) for postemergence treatments. Treated plants and controls were maintained in a greenhouse for 13 to 15 days, after which time all species were compared to controls and visually evaluated. Plant response ratings, summarized in Table C, are based on a scale of 0 to 100 where 0 is no effect and 100 is complete control. A dash (-) response means no test result.

soybean = test: Test C preemergence; type: in vivo, Glycine max; details: for Plant response rating (scale of 0 to 100), Soybean: Preemergence, 250 g ai/ha; for Soybean plant response rating / Plant response rating, Soybean: preemergence; for Plant response rating, Soybean: 62 g ai/ha, scale 0 to 100, 0 = no effect, 100 = complete control
From the text: as §1, §2

galium [2] = test: Test C postemergence; type: in vivo, Galium aparine; details: for Galium plant response rating: scale 0 to 100
From the text: as §1, §2

corn [3] = test: Test C preemergence; type: in vivo, Zea mays; details: for Plant response rating (scale of 0 to 100), Corn: Preemergence, 250 g ai/ha; for Corn plant response rating / Plant response rating, Corn: preemergence; for Plant response rating, Corn: 62 g ai/ha, scale 0 to 100, 0 = no effect, 100 = complete control
From the text: as §1, §2

wheat [4] = test: Test C postemergence; type: in vivo, Triticum aestivum; details: postemergence; for Wheat plant response rating: 62 g ai/ha, scale 0 to 100
From the text: as §1, §2

galium [5] = test: Test C preemergence; type: in vivo, Galium aparine; details: for Plant response rating (scale of 0 to 100), Galium: Preemergence, 250 g ai/ha; for Galium plant response rating / Plant response rating, Galium: preemergence; for Plant response rating, Galium: 62 g ai/ha, scale 0 to 100, 0 = no effect, 100 = complete control
How it was run: (§3)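 Visual rating, 0–100 scale (0 no effect, 100 complete control), vs untreated controls after 13–15 d greenhouse. Pre: seeds in loam/sand, treated at sowing. Post: plants in peat-based mix, 1- to 4-leaf (2–18 cm). Solvent + surfactant formulation, non-phytotoxic.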

morningglory = test: Test C postemergence; type: in vivo, Ipomoea coccinea; details: for Morningglory plant response rating: scale 0 to 100
From the text: as §1, §2

wheat [6] = test: Test A postemergence; type: in vivo, Triticum aestivum
How it was run: (§4)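 Visual injury ratings, 0 = no effect to 100 = complete control, taken about 10 days after treatment against untreated controls. Test chemicals, in a non-phytotoxic surfactant-containing solvent, were sprayed onto soil preemergence or onto one- to two-leaf plants (2–10 cm) postemergence, in loam–sand soil under greenhouse conditions.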

velvetleaf [7] = test: Test C postemergence; type: in vivo, Abutilon theophrasti; details: postemergence; for Velvetleaf plant response rating: 62 g ai/ha, scale 0 to 100
How it was run: as §3

foxtail, giant [8] = test: Test A postemergence; type: in vivo, Setaria faberii
How it was run: as §4

kochia = test: Test C postemergence; type: in vivo, Kochia scoparia; details: for Kochia plant response rating: scale 0 to 100
From the text: as §1, §2

foxtail, giant [9] = test: Test C postemergence; type: in vivo, Setaria faberii; details: for Foxtail, Giant plant response rating: scale 0 to 100
How it was run: as §3

corn [10] = test: Test A postemergence; type: in vivo, Zea mays
How it was run: as §4

velvetleaf [11] = test: Test A postemergence; type: in vivo, Abutilon theophrasti
How it was run: as §4

[12] = 31 g ai/ha, scale 0 to 100 (0 no effect, 100 complete control), 13 to 15 days
[13] = 125 g ai/ha, scale 0 to 100, 0 is no effect, 100 is complete control
[14] = postemergence, 250 g ai/ha, scale 0 to 100 (0 no effect, 100 complete control)
[15] = postemergence, 125 g ai/ha, scale 0 to 100, 0 no effect, 100 complete control
[16] = 250 g ai/ha, scale 0 to 100 (0 no effect, 100 complete control)
[17] = 125 g ai/ha, scale 0 to 100, 0 no effect, 100 complete control
[18] = Postemergence, 500 g ai/ha, visual rating after approx. 10 days, 0 to 100 scale (0 no effect, 100 complete control)
[19] = postemergence, 125 g ai/ha, about 10 days, visual rating on 0 to 100 scale (0 no effect, 100 complete control)
[20] = Postemergence, 1000 g ai/ha, visual rating after approx. 10 days, 0 to 100 scale (0 no effect, 100 complete control)

CCONC(=O)c1cc(CC)n(Cc2cccc(OC(F)(F)F)c2)n1 [Compound 72]
Plant response rating (scale of 0 to 100), Foxtail, Giant (foxtail, giant [1]): 100
Foxtail, Giant plant response rating (foxtail, giant [1]; [12]): 65
Plant response rating, Foxtail, Giant (foxtail, giant [1]; 13 to 15 days): 80
Foxtail, Giant plant response rating (foxtail, giant [1]; [13]): 85
Plant response rating (scale of 0 to 100), Soybean (soybean): 75
Soybean plant response rating (soybean; [12]): 20
Plant response rating, Soybean (soybean; 13 to 15 days): 60
Soybean plant response rating (soybean; [13]): 75
Galium plant response rating (galium [2]; Postemergence, 31 g ai/ha): 45
Galium plant response rating (galium [2]; postemergence, 62 g ai/ha): 70
Plant response rating, Galium (galium [2]; [14]): 80
Plant response rating, Galium (galium [2]; [15]): 70
Plant response rating (scale of 0 to 100), Corn (corn [3]): 75
Corn plant response rating (corn [3]; [12]): 30
Plant response rating, Corn (corn [3]; 13 to 15 days): 45
Corn plant response rating (corn [3]; [13]): 60
Wheat plant response rating (wheat [4]): 5
Plant response rating, Wheat (wheat [4]; [16]): 10
Plant response rating, Wheat (wheat [4]; [17]): 10
Plant response rating (scale of 0 to 100), Galium (galium [5]): 100
Galium plant response rating (galium [5]; [12]): 70
Plant response rating, Galium (galium [5]; 13 to 15 days): 98
Galium plant response rating (galium [5]; [13]): 100
Morningglory plant response rating (morningglory; Postemergence, 31 g ai/ha): 0
Morningglory plant response rating (morningglory; postemergence, 62 g ai/ha): 35
Plant response rating, Morningglory (morningglory; [14]): 65
Plant response rating, Morningglory (morningglory; [15]): 60
Wheat plant response rating (wheat [6]; [18]): 80
Wheat plant response rating (wheat [6]; [19]): 70
Velvetleaf plant response rating (velvetleaf [7]): 5
Plant response rating, Velvetleaf (velvetleaf [7]; [16]): 55
Plant response rating, Velvetleaf (velvetleaf [7]; [17]): 35
Foxtail, Giant plant response rating (foxtail, giant [8]; [18]): 90
Foxtail, Giant plant response rating (foxtail, giant [8]; [19]): 80
Kochia plant response rating (kochia; Postemergence, 31 g ai/ha): 10
Kochia plant response rating (kochia; postemergence, 62 g ai/ha): 25
Plant response rating, Kochia (kochia; [14]): 55
Plant response rating, Kochia (kochia; [15]): 40
Foxtail, Giant plant response rating (foxtail, giant [9]; Postemergence, 31 g ai/ha): 5
Foxtail, Giant plant response rating (foxtail, giant [9]; postemergence, 62 g ai/ha): 5
Plant response rating, Foxtail, Giant (foxtail, giant [9]; [14]): 15
Plant response rating, Foxtail, Giant (foxtail, giant [9]; [15]): 5
Corn plant response rating (corn [10]; [18]): 80
Corn plant response rating (corn [10]; [19]): 70
Velvetleaf plant response rating (velvetleaf [11]; [18]): 90
Velvetleaf plant response rating (velvetleaf [11]; [19]): 80

Cc1cc(C(=O)NCC(F)(F)F)nn1Cc1ccnc(C(F)(F)F)c1 [Compound 74]
Plant response rating (scale of 0 to 100), Foxtail, Giant (foxtail, giant [1]): 100
Foxtail, Giant plant response rating (foxtail, giant [1]; [12]): 80
Plant response rating, Foxtail, Giant (foxtail, giant [1]; 13 to 15 days): 100
Foxtail, Giant plant response rating (foxtail, giant [1]; [13]): 100
Plant response rating (scale of 0 to 100), Soybean (soybean): 98
Soybean plant response rating (soybean; [12]): 25
Plant response rating, Soybean (soybean; 13 to 15 days): 55
Soybean plant response rating (soybean; [13]): 85
Galium plant response rating (galium [2]; Postemergence, 31 g ai/ha): 60
Galium plant response rating (galium [2]; postemergence, 62 g ai/ha): 60
Plant response rating, Galium (galium [2]; [14]): 85
Plant response rating, Galium (galium [2]; [15]): 80
Plant response rating (scale of 0 to 100), Corn (corn [3]): 98
Corn plant response rating (corn [3]; [12]): 10
Plant response rating, Corn (corn [3]; 13 to 15 days): 60
Corn plant response rating (corn [3]; [13]): 75
Wheat plant response rating (wheat [4]): 0
Plant response rating, Wheat (wheat [4]; [16]): 5
Plant response rating, Wheat (wheat [4]; [17]): 0
Plant response rating (scale of 0 to 100), Galium (galium [5]): 100
Galium plant response rating (galium [5]; [12]): 85
Plant response rating, Galium (galium [5]; 13 to 15 days): 100
Galium plant response rating (galium [5]; [13]): 100
Morningglory plant response rating (morningglory; Postemergence, 31 g ai/ha): 70
Morningglory plant response rating (morningglory; postemergence, 62 g ai/ha): 75
Plant response rating, Morningglory (morningglory; [14]): 80
Plant response rating, Morningglory (morningglory; [15]): 75
Wheat plant response rating (wheat [6]; [20]): 90
Velvetleaf plant response rating (velvetleaf [7]): 30
Plant response rating, Velvetleaf (velvetleaf [7]; [16]): 40
Plant response rating, Velvetleaf (velvetleaf [7]; [17]): 30
Foxtail, Giant plant response rating (foxtail, giant [8]; [20]): 90
Kochia plant response rating (kochia; Postemergence, 31 g ai/ha): 20
Kochia plant response rating (kochia; postemergence, 62 g ai/ha): 50
Plant response rating, Kochia (kochia; [14]): 90
Plant response rating, Kochia (kochia; [15]): 80
Foxtail, Giant plant response rating (foxtail, giant [9]; Postemergence, 31 g ai/ha): 5
Foxtail, Giant plant response rating (foxtail, giant [9]; postemergence, 62 g ai/ha): 10
Plant response rating, Foxtail, Giant (foxtail, giant [9]; [14]): 25
Plant response rating, Foxtail, Giant (foxtail, giant [9]; [15]): 10
Corn plant response rating (corn [10]; [20]): 100
Velvetleaf plant response rating (velvetleaf [11]; [20]): 100
